Measurements taken from patent US6545053B1, “Tricyclic compounds and drug compositions containing same” (Asahi Kasei Kogyo Kabushiki Kaisha, priority 1996, dated 2003).
Where a name gives a salt, the structure may show the parent alone. Read-outs that look alike come from different tables or passages of the source.

Key:
[1] = target: T1, human β3 (Homo sapiens, UniProt P13945); experiment: Human β3-agonist activity (cAMP in CHO cells transfected with human β3 gene); type: cell-based; conditions: for Emax: CHO, read-out: Intrinsic activity (%)
T1 construct: And then full length of human β3 gene was cloned using this fragment as a probe; expressed in transfected cells; host or cells: CHO cells (Chinese hamster ovary), pcDNA3 vector
T1 sequence (P13945 whole entry, the tested form may be a part): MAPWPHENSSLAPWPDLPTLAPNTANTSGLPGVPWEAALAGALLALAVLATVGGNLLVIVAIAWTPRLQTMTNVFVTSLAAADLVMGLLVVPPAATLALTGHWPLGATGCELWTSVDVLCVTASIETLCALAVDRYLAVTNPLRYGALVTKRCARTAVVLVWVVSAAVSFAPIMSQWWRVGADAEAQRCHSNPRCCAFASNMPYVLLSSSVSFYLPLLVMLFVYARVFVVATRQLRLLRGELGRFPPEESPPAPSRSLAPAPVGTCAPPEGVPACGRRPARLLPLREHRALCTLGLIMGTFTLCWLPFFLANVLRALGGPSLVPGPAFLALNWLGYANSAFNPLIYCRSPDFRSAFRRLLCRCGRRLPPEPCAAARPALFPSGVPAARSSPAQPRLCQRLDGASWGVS
Experimental: Human β3-agonist Activity
Human β3-agonist activity was examined using CHO cells (chinese hamster ovarian cells) to which pcDNA3 (in vitrogen) cells inserted human β3 gene was transfected. Human β3 fragment was obtained by PCR using human fat tissue cDNA (supplied from Clontech) with a β3 primer [Krief et al, J. Clin. Invest.
The cells were cultured in a HAM F-12 medium containing 10% of fetal bovine serum, 400 μg/ml of Geneticin (Gibco BRL). 100 U/ml penicillin and 100 μg/ml streptomycin. 5×10^5 cells were placed on a 6-well plate and cultured for 24 hours, after which the medium was changed to a HAM F-12 medium without serum and was kept for 2 hours. Each test compound was first dissolved in DMSO, and then diluted with a HAM F-12 medium containing 1 mM isobutylmethyl xanthine and 1 mM ascorbic acid. A 10-fold dilution in the range of 10^−5 to 10^−12 M was added into the cell.
After culturing for 30 minutes, culture medium was withdrawn, 0.5 ml of 1 N NaOH was added and was kept for 20 minutes. And then 0.5 ml of 1 N acetic acid was added with subsequent agitation and centrifugation. Finally the concentration of cAMP were analyzed using cAMP EIA KIT (Cayman). […] Isoprotelenol was purchased from Research Biochimicals International.

[2] = system: canine adipocytes; experiment: Lipolytic activity in canine fatty cell (glycerol release); type: cell-based, dogs; conditions: Canis lupus familiaris, Adipocyte; for EC50: 1 h, glycerol release, canine adipocytes, read-out: ED50 (the source's name); for Emax: read-out: Intrinsic activity (%)
Experimental: Lipolytic Activity in Canine Fatty Cell
Adipose tissues in the omentum were collected from dogs and minced and washed. Krebs-Ringer buffer solution containing 1 mg/ml Collagenase (Sigma) and 1% of bovine serum albumin was added in an amount of 3 ml per one gram of the tissue. These cells were then incubated at 37° C. for 30 minutes with shaking and then undigested tissues were removed with a nylon filter. The resulting adipocytes were washed four times with Krebs-Ringer buffer, and then the concentration of cells was diluted to 2×10^5/ml with Krebs-Ringer buffer solution containing 4% of bovine serum albumin. These cells were transferred to Eppendorf tubes each in an amount of 300 μl.
Each 300 μl of a culture medium containing the test compounds were added to these tubes and was held at 37° C. for 1 hour whith shaking. Stimulation was stoped by cooling with ice. After centrifugation, the adipocytes were taken off with an aspirator, whereupon the glycerol was determined using F-KIT GLTCEROL (Behringer-Manheim).

[3] = cAMP, CHO cells with human β3, read-out: ED50 (the source's name)

EC50 [1, 3] [nM] | SMILES | Emax [1] [%] | EC50 [2] [nM] | Emax [2] [%] | EC50 [1] [nM]
750 | CS(=O)(=O)Nc1cccc(C(O)CNCCOc2ccc3c(c2)oc2ccccc23)c1 (racemic) [Example 9, (±)-N-[3-[2-[2-(Dibenzofuran-3-yloxy)ethylamino]-1-hydroxyethl]phenyl]methanesulfonamide Hydrochloride] | 85 | 250 | 106 | –
2.6 | CS(=O)(=O)Nc1cc(C(O)CNCCOc2ccc3c(c2)Cc2cc(N)ccc2-3)ccc1O (racemic) [Example 52, (±)-N-[5-[2-[2-(9H-7-Aminofluoren-2-yloxy)ethylamino]-1-hydroxyethyl]-2-hydroxyphenyl]methanesulfonamide Hydrochloride] | 78 | 0.38 | 100 | –
600 | CS(=O)(=O)Nc1cccc(C(O)CNCCOc2ccc3c(c2)sc2ccccc23)c1 (racemic) [Example 41, (±)-N-[3-[2-[2-(Dibenzothiophen-3-yloxy)ethlamino]-1-hydroxyethyl]phenyl]methanesulfonamide Hydrochloride] | 63 | 240 | 109 | –
– | CN(C)S(=O)(=O)Nc1cc(C(O)CNCCOc2ccc3c(c2)sc2ccccc23)ccc1O (racemic) [Example 40, (±)-N′-[5-[2-[2-(Dibenzothiophen-3-yloxy)ethylamino]-1-hydroxyethyl]-2-hydroxyphenyl]-N, N-dimethylsulfamide Hydrochloride] | 97 | 13 | 92 | 200
– | CN(C)S(=O)(=O)Nc1cc(C(O)CNCCOc2ccc3c(c2)oc2ccccc23)ccc1O (racemic) [Example 43, (±)-N′-[5-[2-[2-(Dibenzofuran-3-yloxy)ethylamino]-1-hydroxyethyl]-2-hydroxyphenyl]-N,N-dimethylsulfamide Hydrochloride] | 104 | 4 | 77 | 85
– | O[C@@H](CNCCOc1ccc2c(c1)[nH]c1ccccc12)c1ccccc1 [Example 32, (R)-2-[N-[2-(9H-Carbazol-2-yloxy)ethyl]amino]-1-phenylethanol Hydrochloride] | 98 | 290 | 94 | 1600
– | CS(=O)(=O)Nc1cc(C(O)CNCCOc2ccc3c(c2)sc2ccccc23)ccc1O (racemic) [Example 38, (±)-N-[5-[2-[2-(Dibenzothiophen-3-yloxy)ethylamino]-1-hydroxyethyl]-2-hydroxyphenyl]methanesulfonamide Hydrochloride] | 76 | 2.6 | 103 | 0.006
– | O=S(=O)(Cc1ccccc1)Nc1cccc(C(O)CNCCOc2ccc3c(c2)[nH]c2ccccc23)c1 (racemic) [Example 8, (±)-N-[3-[2-[2-(9H-Carbazol-2-yloxy)ethylamino]-1-hydroxyethyl]phenyl]phenylmethanesulfonamide Hydrochloride] | 47 | – | – | 720
– | CS(=O)(=O)Nc1cc(C(O)CNCCOc2ccc3c(c2)oc2ccccc23)ccc1Cl (racemic) [Example 57, (±)-N-[5-[2-[2-(Dibenzofuran-3-yloxy)ethylamino]-1-hydroxyethyl]-2-chlorophenyl]methanesulfonamide Hydrochloride] | 68 | – | – | 230
– | CS(=O)(=O)Nc1cc(C(O)CNCCOc2ccc3c(c2)[nH]c2ccccc23)ccc1F (racemic) [Example 5, (±)-N-[5-[2-[2-(9H-Carbazol-2-yloxy)ethylamino]-1-hydroxyethyl]-2-fluorophenyl]methanesulfonamide Hydrochloride] | 114 | – | – | 66
17 | CC(=O)Nc1ccc2c(c1)Cc1cc(OCCNCC(O)c3ccc(O)c(NS(=O)(=O)N(C)C)c3)ccc1-2 (racemic) [Example 45, (±)-N′-[5-[2-[2-(9H-7-Acetylaminofluoren-2-yloxy)ethylamino]-1-hydroxyethyl]-2-hydroxyphenyl]-N,N-dimethylsulfamide Hydrochloride] | 89 | – | – | –
– | CS(=O)(=O)Nc1cc([C@H](O)CNCCOc2ccc3c(c2)[nH]c2ccccc23)ccc1F [Example 78, (S)-N-[5-[2-[2-(9H-Carbazol-2-yloxy)ethylamino]-1-hydroxyethyl]-2-fluorophenyl]methanesulfonamide Hydrochloride] | 110 | – | – | 51
6.2 | CNS(=O)(=O)c1cc([C@@H](O)CNCCOc2ccc3c(c2)[nH]c2ccccc23)ccc1O [Example 81, (R)-N-methyl-[5-(2-[2-(9H-Carbazol-2-yloxy)ethylamino]-1-hydroxyethyl]-2-hydroxy]benzenesulfonamide Hydrochloride] | 98 | – | – | –
– | CS(=O)(=O)Nc1cccc([C@@H](O)CNCCOc2ccc3c(c2)oc2ccccc23)c1 [Example 70, (R)-N-[3-[2-[2-(Dibenzofuran-3-yloxy)ethylamino]-1-hydroxyethyl]phenyl]methanesulfonamide Hydrochloride] | 76 | – | – | 300
– | CCN(CC)S(=O)(=O)Nc1cc(C(O)CNCCOc2ccc3c(c2)[nH]c2ccccc23)ccc1O (racemic) [Example 88, (±)-N′-[5-[2-[2-(9H-Carbazol-2-yloxy)ethylamino]-1-hydroxyethyl]-2-hydroxyphenyl]-N,N-diethylsulfamide Hydrochloride] | 86 | – | – | 390
– | CS(=O)(=O)Nc1cc(C(O)CNCCOc2ccc3c(c2)sc2ccccc23)ccc1Cl (racemic) [Example 58, (±)-N-[5-[2-[2-(Dibenzothiophen-3-yloxy)ethylamino]-1-hydroxyethyl]-2-chlorophenyl]methanesulfonamide Hydrochloride] | 91 | – | – | 550
– | CN(C)S(=O)(=O)Nc1cccc(C(O)CNCCOc2ccc3c(c2)[nH]c2ccccc23)c1 (racemic) [Example 48, (±)-N′-[3-[2-[2-(9H-Carbazol-2-yloxy)ethylamino]-1-hydroxyethyl]phenyl]-N,N-dimethylsulfamide Hydrochloride] | 73 | – | – | 220
72 | CNS(=O)(=O)c1cc(C(O)CNCCOc2ccc3c(c2)[nH]c2ccccc23)ccc1O (racemic) [Example 66, (±)-N-methyl-[5-[2-[2-(9H-Carbazol-2-yloxy)ethylamino]-1-hydroxyethyl]-2-hydroxy]benzenesulfonamide Hydrochloride] | 106 | – | – | –
– | CN(C)S(=O)(=O)Nc1cc([C@H](O)CNCCOc2ccc3c(c2)oc2ccccc23)ccc1O [Example 76, (S)-N′-[5-[2-[2-(Dibenzofuran-3-yloxy)ethylamino]-1-hydroxyethyl]2-hydroxyphenyl]-N,N-dimethylsulfamide Hydrochloride] | 131 | – | – | 520
– | OC(CNCCOc1ccc2c(c1)[nH]c1ccccc12)c1ccccc1F (racemic) [Example 28, (±)-2-[N-[2-(9H-Carbazol-2-yloxy)ethyl]amino]-1-(2-fluorophenyl)ethanol Hydrochloride] | 97 | – | – | 1000
– | CS(=O)(=O)Nc1cc(C(O)CNCCOc2ccc3c(c2)sc2ccccc23)ccc1F (racemic) [Example 56, (±)-N-[5-[2-[2-(Dibenzothiophen-3-yloxy)ethylamino]-1-hydroxyethyl]-2-fluorophenyl]methanesulfonamide Hydrochloride] | 97 | – | – | 630
– | CS(=O)(=O)Nc1cc([C@@H](O)CNCCOc2ccc3c(c2)[nH]c2ccccc23)ccc1Cl [Example 79, (R)-N-[5-[2-[2-(9H-Carbazol-2-yloxy)ethylamino]-1-hydroxyethyl]-2-chlorophenyl]methanesulfonamide Hydrochloride] | 107 | – | – | 1.2
– | CS(=O)(=O)Nc1cccc([C@H](O)CNCCOc2ccc3c(c2)[nH]c2ccccc23)c1 [Example 15, (S)-N-[3-[2-[2-(9H-Carbazol-2-yloxy)ethylamino]-1-hydroxyethyl]phenyl]methanesulfonamide Hydrochloride] | 88 | – | – | 110
– | CC(C)NCC(O)c1ccc(O)c(O)c1 (stereo not shown) [Isoproterenol, reference compound] | – | 1.7 | 100 | –
– | CS(=O)(=O)Nc1cccc([C@@H](O)CNCCOc2ccc3c(c2)[nH]c2ccccc23)c1 [Example 14, (R)-N-[3-[2-[2-(9H-Carbazol-2-yloxy)ethylamino]-1-hydroxyethyl]phenyl]methanesulfonamide Hydrochloride] | 97 | – | – | 2.8
